Laboratory results taken from US7645765B2, “Use of moxaverin for treating erectile dysfunction, forms of dementia or diseases associated to an arteriosclerotic occlusion” (Molecular and Clinical Drug Research, priority 2001, dated 2010).
Converted amounts (≈) assume the structure as drawn. Where two headings read alike, the source gives them in different places.

Tests used:
[1] = for pH: 26.6° C.
Experimental: Moxaverin hydrochloride was dissolved completely, as a pure substance, in increasing mass proportions (see Table 1), […], respectively (manufactured by Sigma, PEG 200 and 400, <1% H2O), while stirring constantly, […]

[2] = Direct dissolving of moxaverin HCl in 5-10% diluted PEG; type: physicochemical; settings: 5-10% PEG 400 or PEG 200 in H2O or Tyrode's solution, 37° C.
Experimental: In comparison, an attempt was made to dissolve moxaverin HCl in 5-10% PEG diluted with H2O and Tyrode's solution, respectively. (In other words, analogous to the series of experiments shown in the table, 15 to 40 mg moxaverin HCl were added to 10 ml 10% PEG 400, or 7.5 to 20 mg moxaverin HCl were added to 10 ml 5% PEG 400, and stirred at 37° C.) However, directly dissolving the pure substance in diluted PEG was not possible either in diluted PEG 400 or in diluted PEG 200.

[3] = Solubility in water / aqueous solution; type: physicochemical
Experimental: Also, this low concentration of moxaverin would be difficult to compensate by means of the administration of larger volumes. In addition, the stability of active substances in highly concentrated solutions is generally greater than in solutions having a low concentration. In the form of the free base, moxaverin is practically insoluble in water (<1 mg/ml).

[4] = Solubility of moxaverin hydrochloride in undiluted PEG 200 / PEG 400 at 37° C., pH 7.4 adjustment and dilution with Tyrode's solution; type: physicochemical
Experimental: Moxaverin hydrochloride was dissolved completely, as a pure substance, in increasing mass proportions (see Table 1), in 10 ml commercially available polyethylene glycol having an average molecular weight of 200 and 400, respectively (manufactured by Sigma, PEG 200 and 400, <1% H2O), while stirring constantly, at a temperature of 37° C.
Subsequently, the dissolved moxaverin was converted to an aqueous solution, while stirring constantly, by adding 1×Tyrode's solution with a normal extracellular electrolyte composition.
To determine the pH dependence of the solution behavior of moxaverin hydrochloride, a pH of 7.4 was adjusted in another series of experiments, after complete dissolution in undiluted PEG, by adding NaOH.

[5] = cited from earlier work
[6] = Activity of moxaverin HCl dissolved in pH-neutral PEG solution; settings: pH-neutral diluted PEG solution
[7] = after oral administration; cited from earlier work
[8] = Stability of pH-neutral aqueous PEG solutions of moxaverin; type: physicochemical
[9] = system: patients having erectile dysfunction; assay: Patient study: intracavernous injection of aqueous solutions of moxaverin; type: in vivo, human
Experimental: Twenty patients having a completely clarified genesis of erectile dysfunction were given intracavernous injections (injection therapy of erectile tissue) of aqueous solutions of moxaverin. In this connection, 1 ml of an injection solution containing 1 to 10 mg moxaverin hydrochloride per ml end volume, in Tyrode's buffer, at a pH=7.4 and an end concentration of 2.5% PEG 400 (in the case of 1 mg moxaverin HCl/ml) up to 25% PEG 400 (in the case of 10 mg moxaverin HCl/ml) were administered per individual injection.

[10] = system: smooth muscle cells; settings: more effective than papaverin; cited from earlier work
[11] = 150 mg in 10 ml PEG 200, 37° C.
[12] = 150 mg in 10 ml PEG 400, 37° C.
[13] = 200 mg in 10 ml PEG 200, 37° C.
[14] = 200 mg in 10 ml PEG 400, 37° C.
[15] = 250 mg in 10 ml PEG 200, 37° C.
[16] = 250 mg in 10 ml PEG 400, 37° C.
[17] = 300 mg in 10 ml PEG 200, 37° C.
[18] = 300 mg in 10 ml PEG 400, 37° C.
[19] = 350 mg in 10 ml PEG 200, 37° C.
[20] = 350 mg in 10 ml PEG 400, 37° C.
[21] = 400 mg in 10 ml PEG 200, 37° C.
[22] = 400 mg in 10 ml PEG 400, 37° C.

CCc1cc2cc(OC)c(OC)cc2c(Cc2ccccc2)n1.Cl [moxaverin hydrochloride]
Solubility [1]: Dissolved
maximum brought into solution in EtOH [1]: ≤ 200 mg/mL
pH ([1]; 10 mg/ml in ethanol 90%): 3.49
pH ([1]; 20 mg/ml in ethanol 90%): 3.36
pH ([1]; 30 mg/ml in ethanol 90%): 3.30
pH ([1]; 40 mg/ml in ethanol 90%): 3.19
pH ([1]; 50 mg/ml in ethanol 90%): 3.13
pH ([1]; 60 mg/ml in ethanol 90%): 3.11
pH ([1]; 100 mg/ml in ethanol 90%): 3.00
pH ([1]; 200 mg/ml in ethanol 90%): 2.96
directly dissolving the pure substance in diluted PEG [2]: not possible
maximum brought into solution in H2O [3]: < 1 mg/mL
concentration at which moxaverin HCl precipitated after neutralization ([4]; PEG 200, pH 7.4): ≥ 35000 µg/mL
moxaverin concentration achieved in undiluted polyethylene glycol 400 ([4]; undiluted PEG 400, 37° C.): up to 40 mg/ml
maximum concentration of moxaverin HCl in aqueous solution ([5]; aqueous solutions having a physiological pH): ≤ 1 mg/mL
activity of the dissolved moxaverin HCl [6]: active

CCc1cc2cc(OC)c(OC)cc2c(Cc2ccccc2)n1 [moxaverin, 1-benzyl-3-ethyl-6,7-dimethoxyisoquinoline]
toxicity relative to papaverin [7]: ten times less toxic
time the solutions remained stable without precipitation [8]: more than six months
Solubility at pH 7.4 [4, 11]: Yes
pH [4, 11]: 3.05
Solubility at pH 7.4 [4, 12]: Yes
pH [4, 12]: 2.53
Solubility at pH 7.4 [4, 13]: Yes
pH [4, 13]: 3.06
Solubility at pH 7.4 [4, 14]: Yes
pH [4, 14]: 2.33
Solubility at pH 7.4 [4, 15]: Yes
pH [4, 15]: 2.97
Solubility at pH 7.4 [4, 16]: Yes
pH [4, 16]: 2.27
Solubility at pH 7.4 [4, 17]: Yes
pH [4, 17]: 2.95
Solubility at pH 7.4 [4, 18]: Yes
pH [4, 18]: 2.30
Solubility at pH 7.4 [4, 19]: No
pH [4, 19]: 2.87
Solubility at pH 7.4 [4, 20]: Yes
pH [4, 20]: 2.22
Solubility at pH 7.4 [4, 21]: No
pH [4, 21]: 2.75
Solubility at pH 7.4 [4, 22]: Yes
pH [4, 22]: 2.12
solution behaviour after pH neutralization ([4]; PEG 400, high concentrations, pH 7.4): remained in solution
maximum moxaverin concentration in the finished aqueous medicinal solution ([4]; PEG as solubilizer, upper limit 30% PEG): approximately 12 mg/ml
behaviour on dilution with 1×Tyrode's solution ([4]; dissolved in PEG, diluted as desired): without the dissolved moxaverin precipitating
precipitation on dilution of pH-neutral solutions ([4]; low PEG concentrations of 5% and less): did not precipitate
Solubility ([4]; undiluted polyethylene glycol (PEG), 37 °C, organic solvent or mixture, thermodynamic from solid, undiluted PEG, read-out: maximum solubility in undiluted PEG): ~40 mg/mL (≈ 130 mM)
solubility in water ([5]; free base, water): < 1 mg/mL
pain in connection with the injection ([9]; intracavernous injection): No pain was observed
side effects such as priapism ([9]; intracavernous injection): not observed
cases with sufficiently strong penile erection ([9]; intracavernous, 1 to 10 mg moxaverin hydrochloride in 1 ml, 20 patients): more than 90%
degree of erection E ([9]; scale from 0 to 5, intracavernous injection): 4-5
effectiveness as musculotropic spasmolytic relative to parent substance papaverin [10]: 2.5 ×
